Assay results published in the NIST ThermoML archive (doi:10.1021/acs.jced.7b00802).
± gives the expanded uncertainty stated by the source. Each block holds one compound with its values, some of them ahead of it.

Settings: Liquid, Ebulliometric method (Recirculating still)

vapor or sublimation pressure (357.75 K): 101.3 ± 0.8 kPa
Structure (SMILES): COCCOC [1,2-dimethoxyethane]

vapor or sublimation pressure (344.96 K): 101.3 ± 0.8 kPa
Structure (SMILES): CC1CCCC1 [methylcyclopentane]

vapor or sublimation pressure (341.88 K): 101.3 ± 0.8 kPa
Structure (SMILES): CCCCCC [hexane]
